Measurements: ChEMBL document CHEMBL1909046, “DrugMatrix in vitro pharmacology data”

Key:
Glucocorticoid receptor = biological target: T1, Glucocorticoid receptor (Homo sapiens, UniProt P04150); conditions: hela s3; note: in other assays of this panel Not Active means under 50% inhibition at 10 µM
T1 sequence (P04150 whole entry): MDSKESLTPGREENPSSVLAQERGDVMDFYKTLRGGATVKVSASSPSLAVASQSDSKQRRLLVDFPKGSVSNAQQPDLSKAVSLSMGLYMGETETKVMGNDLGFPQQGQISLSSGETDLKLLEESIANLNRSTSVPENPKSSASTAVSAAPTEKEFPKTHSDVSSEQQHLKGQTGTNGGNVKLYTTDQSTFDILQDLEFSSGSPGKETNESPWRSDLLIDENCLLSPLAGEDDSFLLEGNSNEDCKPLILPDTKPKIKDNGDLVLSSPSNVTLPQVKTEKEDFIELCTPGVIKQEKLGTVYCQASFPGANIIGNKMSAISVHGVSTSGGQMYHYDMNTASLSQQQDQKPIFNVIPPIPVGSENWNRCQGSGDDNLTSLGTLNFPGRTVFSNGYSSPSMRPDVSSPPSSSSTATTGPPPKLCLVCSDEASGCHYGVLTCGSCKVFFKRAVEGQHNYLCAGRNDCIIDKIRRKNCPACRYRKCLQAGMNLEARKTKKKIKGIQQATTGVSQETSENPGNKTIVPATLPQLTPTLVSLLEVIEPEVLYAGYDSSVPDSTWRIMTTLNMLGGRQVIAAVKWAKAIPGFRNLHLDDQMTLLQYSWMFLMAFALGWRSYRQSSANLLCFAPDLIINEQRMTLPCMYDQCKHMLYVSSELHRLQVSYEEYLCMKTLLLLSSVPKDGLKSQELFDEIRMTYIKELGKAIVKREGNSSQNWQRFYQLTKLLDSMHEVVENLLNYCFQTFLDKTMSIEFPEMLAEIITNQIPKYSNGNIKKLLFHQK

Substance-P receptor = Substance-P receptor (Homo sapiens, UniProt P25103); format: cell membranes, CHO, Membrane; conditions: cho; note: in other assays of this panel Not Active means under 50% inhibition at 10 µM
Chain of Substance-P receptor (P25103 whole entry): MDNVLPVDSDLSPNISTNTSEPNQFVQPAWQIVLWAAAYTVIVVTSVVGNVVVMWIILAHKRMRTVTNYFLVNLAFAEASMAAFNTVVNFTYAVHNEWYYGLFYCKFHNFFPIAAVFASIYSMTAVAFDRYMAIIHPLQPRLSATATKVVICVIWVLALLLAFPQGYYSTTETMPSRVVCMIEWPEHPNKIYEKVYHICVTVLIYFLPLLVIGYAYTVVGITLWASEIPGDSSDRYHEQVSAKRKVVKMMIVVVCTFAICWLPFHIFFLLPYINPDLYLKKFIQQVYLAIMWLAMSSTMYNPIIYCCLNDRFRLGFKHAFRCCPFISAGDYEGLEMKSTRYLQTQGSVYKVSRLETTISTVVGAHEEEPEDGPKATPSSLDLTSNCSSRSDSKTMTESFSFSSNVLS

Adenosine receptor A2a = Adenosine receptor A2a (Homo sapiens, UniProt P29274); assay: DRUGMATRIX: Adenosine A2A radioligand binding (ligand: […]); format: cell membranes, HEK293, Membrane; conditions: hek293; Not Active = under 50% inhibition at 10 µM
Chain of Adenosine receptor A2a (P29274 whole entry): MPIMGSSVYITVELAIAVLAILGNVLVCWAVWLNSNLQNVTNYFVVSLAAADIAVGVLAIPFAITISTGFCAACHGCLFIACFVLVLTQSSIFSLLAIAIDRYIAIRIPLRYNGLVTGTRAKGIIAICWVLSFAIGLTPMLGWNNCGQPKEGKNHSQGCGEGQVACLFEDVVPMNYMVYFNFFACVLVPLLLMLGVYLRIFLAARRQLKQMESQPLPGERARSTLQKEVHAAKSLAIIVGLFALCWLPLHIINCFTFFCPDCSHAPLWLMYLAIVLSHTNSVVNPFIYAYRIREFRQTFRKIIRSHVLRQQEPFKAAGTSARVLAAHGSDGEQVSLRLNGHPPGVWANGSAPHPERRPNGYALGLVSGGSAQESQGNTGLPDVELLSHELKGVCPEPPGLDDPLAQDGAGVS

Cytochrome P450 3A4 = Cytochrome P450 3A4 (Homo sapiens, UniProt P08684); conditions: bti-tn-5b1-4; note: in other assays of this panel Not Active means under 50% inhibition at 10 µM
Chain of Cytochrome P450 3A4 (P08684 whole entry): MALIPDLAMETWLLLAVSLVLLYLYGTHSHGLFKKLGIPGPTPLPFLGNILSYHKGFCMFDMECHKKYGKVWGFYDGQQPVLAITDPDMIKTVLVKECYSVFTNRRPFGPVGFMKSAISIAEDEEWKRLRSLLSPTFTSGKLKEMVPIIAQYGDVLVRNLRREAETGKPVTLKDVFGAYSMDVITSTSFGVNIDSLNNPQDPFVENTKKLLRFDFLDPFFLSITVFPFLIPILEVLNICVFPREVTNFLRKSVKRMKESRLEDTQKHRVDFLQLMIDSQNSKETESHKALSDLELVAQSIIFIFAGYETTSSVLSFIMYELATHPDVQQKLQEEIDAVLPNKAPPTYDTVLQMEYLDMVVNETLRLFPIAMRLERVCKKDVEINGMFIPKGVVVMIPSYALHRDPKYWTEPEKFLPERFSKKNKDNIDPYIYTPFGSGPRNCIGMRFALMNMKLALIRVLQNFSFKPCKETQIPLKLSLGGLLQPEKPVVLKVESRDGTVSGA

[1] = biological target: T2, Alpha-1B adrenergic receptor (Rattus norvegicus, UniProt P15823); assay: DRUGMATRIX: Alpha-1B adrenergic receptor radioligand binding (ligand: prazosin); format: cell membranes, Wistar, Liver, Membrane; conditions: Not Active = under 50% inhibition at 10 µM; for Ki: read-out: Ki
T2 sequence (P15823 whole entry): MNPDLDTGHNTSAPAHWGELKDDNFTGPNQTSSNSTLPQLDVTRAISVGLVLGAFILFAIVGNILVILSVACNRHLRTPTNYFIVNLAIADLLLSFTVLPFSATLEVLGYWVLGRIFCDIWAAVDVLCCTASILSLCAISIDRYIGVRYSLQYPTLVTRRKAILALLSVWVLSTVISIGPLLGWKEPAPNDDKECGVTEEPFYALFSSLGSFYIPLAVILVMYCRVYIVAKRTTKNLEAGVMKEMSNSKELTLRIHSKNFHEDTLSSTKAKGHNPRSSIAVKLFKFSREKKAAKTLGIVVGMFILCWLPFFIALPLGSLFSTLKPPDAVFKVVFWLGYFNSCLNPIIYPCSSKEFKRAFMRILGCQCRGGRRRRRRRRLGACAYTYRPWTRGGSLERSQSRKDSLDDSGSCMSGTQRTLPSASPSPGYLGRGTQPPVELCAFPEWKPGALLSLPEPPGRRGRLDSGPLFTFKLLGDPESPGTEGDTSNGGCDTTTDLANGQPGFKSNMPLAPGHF

[2] = DRUGMATRIX: Glutamate, AMPA radioligand binding (ligand: [3H] AMPA); format: cell membranes, Rattus norvegicus, Wistar, Cerebral cortex, Membrane; conditions: Not Active = under 50% inhibition at 10 µM
Carbonic anhydrase 2 = Carbonic anhydrase 2 (Homo sapiens, UniProt P00918); assay: DRUGMATRIX: Carbonic Anhydrase II enzyme inhibition (substrate: 4-Nitrophenyl acetate (4-NPA)); format: tissue-based, Erythrocyte; conditions: Not Active = under 50% inhibition at 10 µM

| SMILES | IC50 (Glucocorticoid receptor) | IC50 (Substance-P receptor) | IC50 (Adenosine receptor A2a) | IC50 (Cytochrome P450 3A4) | Ki (Cytochrome P450 3A4) | IC50 [1] | IC50 [2] | Ki [2] | IC50 (Carbonic anhydrase 2; erythrocyte) | IC50 ([1]; read-out: IC50) [nM] | Ki [1] [nM] | IC50 (Carbonic anhydrase 2; read-out: IC50) [nM] |
| --- | --- | --- | --- | --- | --- | --- | --- | --- | --- | --- | --- | --- |
| O=C(O)CCCc1cccs1 | Not Active | Not Active | Not Active | Not Active | Not Active | Not Active | Not Active | Not Active | Not Active | – | – | – |
| O=C(c1ccccc1F)N1CCC(Cc2ccccc2)CC1 | Not Active | Not Active | Not Active | Not Active | Not Active | Not Active | Not Active | Not Active | Not Active | – | – | – |
| CC(O)COC[C@H]1O[C@@H]2O[C@H]3[C@H](O)[C@@H](O)[C@@H](O[C@H]4[C@H](O)[C@@H](O)[C@@H](O[C@H]5[C@H](O)[C@@H](O)[C@@H](O[C@H]6[C@H](O)[C@@H](O)[C@@H](O[C@H]7[C@H](O)[C@@H](O)[C@@H](O[C@H]8[C@H](O)[C@@H](O)[C@@H](O[C@H]1[C@H](O)[C@H]2O)O[C@@H]8COCC(C)O)O[C@@H]7COCC(C)O)O[C@@H]6COCC(C)O)O[C@@H]5COCC(C)O)O[C@@H]4COCC(C)O)O[C@@H]3COCC(C)O (stereo partly drawn) [2-HYDROXYPROPYL-BETA-CYCLODEXTRIN] | Not Active | Not Active | Not Active | Not Active | Not Active | Not Active | Not Active | Not Active | Not Active | – | – | – |
| NC(=O)c1cccc(N)c1 [3-AMINOBENZAMIDE] | Not Active | Not Active | Not Active | Not Active | Not Active | Not Active | Not Active | Not Active | Not Active | – | – | – |
| C[C@H]1O[C@H](O[C@H]2[C@H](O)[C@@H](O)[C@@H](O[C@H]3[C@H](O)[C@@H](O)C(O)O[C@@H]3CO)O[C@@H]2CO)[C@H](O)[C@@H](O)[C@@H]1N[C@H]1C=C(CO)[C@@H](O)[C@H](O)[C@H]1O (some centres not stated) [ACARBOSE] | Not Active | Not Active | Not Active | Not Active | Not Active | Not Active | Not Active | Not Active | Not Active | – | – | – |
| CC[C@H]1[C@@H]2C[C@H]3[C@@H]4N(C)c5ccccc5[C@]45C[C@@H]([C@@H]2[C@H]5O)N3[C@@H]1O [AJMALINE] | Not Active | Not Active | Not Active | Not Active | Not Active | Not Active | Not Active | Not Active | Not Active | – | – | – |
| NCCCNCCSP(=O)(O)O [AMIFOSTINE] | Not Active | Not Active | Not Active | Not Active | Not Active | Not Active | Not Active | Not Active | Not Active | – | – | – |
| CN(C)CCC=C1c2ccccc2CCc2ccccc21 [AMITRIPTYLINE] | Not Active | Not Active | Not Active | Not Active | Not Active | – | Not Active | Not Active | Not Active | 76 | 42 | – |
| CC(=O)Oc1ccccc1C(=O)O [ASPIRIN] | Not Active | Not Active | Not Active | Not Active | Not Active | Not Active | Not Active | Not Active | Not Active | – | – | – |
| CC(=O)OC[C@H]1O[C@@H](n2ncc(=O)[nH]c2=O)[C@H](OC(C)=O)[C@@H]1OC(C)=O [AZARIBINE] | Not Active | Not Active | Not Active | Not Active | Not Active | Not Active | Not Active | Not Active | Not Active | – | – | – |
| C[C@H]1[C@H](NC(=O)/C(=N\OC(C)(C)C(=O)O)c2csc(N)n2)C(=O)N1S(=O)(=O)O [AZTREONAM] | Not Active | Not Active | Not Active | Not Active | Not Active | Not Active | Not Active | Not Active | Not Active | – | – | – |
| O=C(O)CCNC(=O)c1ccc(/N=N/c2ccc(O)c(C(=O)O)c2)cc1 [BALSALAZIDE] | Not Active | Not Active | Not Active | Not Active | Not Active | Not Active | Not Active | Not Active | Not Active | – | – | – |
| CO/N=C(\C(=O)N[C@@H]1C(=O)N2C(C(=O)O)=C(COC(C)=O)CS[C@H]12)c1csc(N)n1 [CEFOTAXIME] | Not Active | Not Active | Not Active | Not Active | Not Active | Not Active | Not Active | Not Active | Not Active | – | – | – |
| CNC1=Nc2ccc(Cl)cc2C(c2ccccc2)=[N+]([O-])C1 [CHLORDIAZEPOXIDE] | Not Active | Not Active | Not Active | Not Active | Not Active | Not Active | Not Active | Not Active | Not Active | – | – | – |
| Cc1cc(O)cc(C)c1Cl [CHLOROXYLENOL] | Not Active | Not Active | Not Active | Not Active | Not Active | Not Active | Not Active | Not Active | Not Active | – | – | – |
| CCCNC(=O)NS(=O)(=O)c1ccc(Cl)cc1 [CHLORPROPAMIDE] | Not Active | Not Active | Not Active | Not Active | Not Active | Not Active | Not Active | Not Active | Not Active | – | – | – |
| NS(=O)(=O)c1cc(C2(O)NC(=O)c3ccccc32)ccc1Cl (configuration not stated) [CHLORTHALIDONE] | Not Active | Not Active | Not Active | Not Active | Not Active | Not Active | Not Active | Not Active | – | – | – | 677 |
| O=C(O)CC(O)(CC(=O)O)C(=O)O [CITRIC ACID] | Not Active | Not Active | Not Active | Not Active | Not Active | Not Active | Not Active | Not Active | Not Active | – | – | – |
| CN1CCN(C(c2ccccc2)c2ccccc2)CC1 [CYCLIZINE] | Not Active | Not Active | Not Active | Not Active | Not Active | – | Not Active | Not Active | Not Active | 2490 | 1380 | – |
| N[C@@H](Cn1ccc(=O)c(O)c1)C(=O)O [L-MIMOSINE] | Not Active | Not Active | Not Active | – | – | Not Active | Not Active | Not Active | Not Active | – | – | – |
| C[C@@H]1C/C=C/C=C/C=C/C=C/[C@H](O[C@@H]2O[C@H](C)[C@@H](O)[C@H](N)[C@@H]2O)C[C@@H]2O[C@](O)(C[C@@H](O)C[C@H]3O[C@@H]3/C=C/C(=O)O1)C[C@H](O)[C@H]2C(=O)O [NATAMYCIN] | Not Active | Not Active | Not Active | – | – | Not Active | Not Active | Not Active | Not Active | – | – | – |
| N=C(N)c1ccc(OCCCCCOc2ccc(C(=N)N)cc2)cc1 [PENTAMIDINE] | Not Active | Not Active | Not Active | – | – | – | Not Active | Not Active | Not Active | 967 | 535 | – |
| NNCCc1ccccc1 [PHENELZINE] | Not Active | Not Active | Not Active | – | – | Not Active | Not Active | Not Active | Not Active | – | – | – |
